Reference: PubChem BioAssay (NCI)
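Protocol summary: plate cells (96-well), add compound at 5 concentrations, incubate 48 h, interpolate endpoints linearly. Abbreviation: GI50, concentration required for 50% inhibition of growth. TGI: concentration producing complete growth inhibition.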

How the values were obtained:
Assay in all cases: NCI-60 cell line screen, 48 h
[1] = system: RPMI-8226 leukemia
[2] = system: SK-MEL-28 melanoma
[3] = system: RXF 393 renal
[4] = system: HT29 colon
[5] = system: TK-10 renal
[6] = system: MALME-3M melanoma
[7] = system: SK-OV-3 ovarian
[8] = system: UACC-62 melanoma
[9] = system: SR leukemia
[10] = system: BT-549 breast

Compound | TGI [1] [µM] | TGI [2] [µM] | TGI [3] [µM] | TGI [4] [µM] | TGI [5] [µM] | TGI [6] [µM] | TGI [7] [µM] | TGI [8] [µM] | TGI [9] [µM] | TGI [10] [µM] | GI50 [4] [µM] | GI50 [5] [µM] | GI50 [7] [µM] | GI50 [8] [µM]
O=C(O)CN(c1ccccc1)S(=O)(=O)c1ccc(Cl)cc1 | > 100 | > 100 | > 100 | > 100 | > 100 | > 100 | > 100 | > 100 | – | – | – | – | – | –
CC1=C(/C=C/C2=CC(=C\C(=O)O)/CC(C3=C(C)CCCC3(C)C)C2)C(C)(C)CCC1 (stereo not drawn) | 27 | 29.5 | 22.6 | 28.6 | 27.3 | 34.1 | 27.7 | 23.1 | 24.2 | – | – | – | – | –
O=C1NC(=O)C(=O)C(c2nc3ccccc3s2)C1=O | – | > 100 | > 100 | > 100 | > 100 | > 100 | > 100 | > 100 | > 100 | – | – | – | – | –
O=C(N/C(=C\c1ccc([N+](=O)[O-])cc1)c1nc2ccc(Cl)cc2[nH]1)c1ccccc1 | – | 83.7 | 58.3 | 43.9 | 88.7 | 97.9 | 94.6 | 50.1 | 63.3 | – | – | – | – | –
O=S1c2ccccc2N=C(c2ccc(Cl)cc2)CC1c1cccs1 (stereo not drawn) | 56.2 | 38.4 | 47.6 | 49.4 | > 100 | > 100 | 85.4 | 64.1 | 43.1 | – | – | – | – | –
CC1(C)N=C(/C=N/O)C(C)(C)N1O | > 100 | > 100 | > 100 | > 100 | > 100 | > 100 | > 100 | > 100 | > 100 | – | – | – | – | –
CCOC(=O)/C(C#N)=C\C=C1/C=CNC2=NCCN21 | > 100 | > 100 | > 100 | > 100 | > 100 | > 100 | > 100 | > 100 | > 100 | – | – | – | – | –
Cc1ccc(NC(=O)CC/C(CC(=O)c2ccc(Cl)cc2)=N\NC(=O)C(=O)NN)cc1C | > 100 | > 100 | > 100 | > 100 | > 100 | > 100 | > 100 | > 100 | > 100 | – | – | – | – | –
O=C(O)CCSC(=O)Nc1cccc([N+](=O)[O-])c1 | > 100 | > 100 | > 100 | > 100 | > 100 | – | – | – | > 100 | – | – | – | – | –
C[C@]12CC(C#N)C(=O)C(O)=C1CC[C@@H]1C2CC[C@@]2(C)C1CC[C@@H]2O (stereo partly drawn) | > 100 | > 100 | 44.4 | > 100 | > 100 | > 100 | > 100 | 83.8 | – | – | – | – | – | –
Cc1cc(O)c(/C=N/c2nc(-c3cccc([N+](=O)[O-])c3)cs2)c(=O)o1 | – | > 100 | – | > 100 | 26.6 | – | > 100 | > 100 | – | 73.5 | – | – | – | –
CC(=O)NC1C(OCc2ccccc2)OC(COC(=O)CCCCCNc2ccc([N+](=O)[O-])c3[nH]c4ccc(O)cc4c(=O)c23)C(O)C1OC(C)C(=O)N[C@@H](C)C(=O)N[C@H](CCC(=O)OCc1ccccc1)C(N)=O (stereo partly drawn) | 3.57 | 6.9 | 3.26 | 3.09 | – | 2.87 | 10.7 | 4.27 | 0.657 | – | – | – | – | –
C[C@@H](NC1CCC[C@@H]1O)c1ccccc1 (stereo partly drawn) | > 100 | > 100 | > 100 | > 100 | > 100 | > 100 | > 100 | > 100 | – | – | – | – | – | –
C=CCCC(C)N(C(=O)OC(C)(C)C)S(=O)(=O)c1ccc(C)cc1 (stereo not drawn) | > 100 | > 100 | – | > 100 | > 100 | > 100 | > 100 | > 100 | > 100 | – | – | – | – | –
COc1cc2ccnc3c2c(c1OC)CC1CC(O)C(OC)CC31 (stereo not drawn) | > 100 | 75.2 | – | > 100 | > 100 | > 100 | > 100 | > 100 | > 100 | – | – | – | – | –
NNC(=O)CCC(=O)Nc1ccc(Cl)cc1Cl | > 100 | > 100 | > 100 | > 100 | > 100 | > 100 | > 100 | > 100 | > 100 | – | – | – | – | –
CC(C)Cc1ccc(C(C)/C=C2\CCC(CN3CCCC3)C2=O)cc1 (stereo not drawn) | 5.53 | 28.4 | 34.3 | 23.2 | 9.92 | 36.1 | 33.9 | 31.2 | 5.18 | – | – | – | – | –
COc1cc([C@@H]2c3cc4c(cc3[C@@H](NCc3ccc(C#N)cc3)C3COC(=O)[C@@H]32)OCO4)cc(OC)c1O (stereo partly drawn) | 5.07 | 15.2 | 21.5 | 3.15 | 3.76 | 4.9 | 3.9 | 2.75 | – | – | – | – | – | –

Compound | TGI [1] [µM] | TGI [2] [µM] | TGI [3] [µM] | TGI [4] [µM] | TGI [5] [µM] | TGI [6] [µM] | TGI [7] [µM] | TGI [8] [µM] | TGI [9] [µM] | TGI [10] [µM] | GI50 [4] [µM] | GI50 [5] [µM] | GI50 [7] [µM] | GI50 [8] [µM]
CCCC1C(=O)C(CC)Cc2c(OC)ccc(OC)c21 (stereo not drawn) | > 100 | > 100 | > 100 | > 100 | > 100 | > 100 | > 100 | > 100 | – | – | – | – | – | –
c1ccc(/N=C2\c3ccccc3CN2c2ccccn2)nc1 | > 100 | > 100 | > 100 | > 100 | > 100 | – | > 100 | > 100 | – | > 100 | – | – | – | –
CCCCCCCC(=O)OCC1OC(n2cc(F)c(=O)[nH]c2=O)C(NC(=O)OCc2ccccc2)C(OC(=O)CCCCCCC)C1O (stereo not drawn) | 51.2 | > 100 | 64.2 | > 100 | > 100 | 44.2 | > 100 | 45.7 | 64 | – | – | – | – | –
CC([C@H]1CCC2C3CCC4CC5(CC[C@]4(C)C3CC[C@@]21C)c1ccccc1C(=O)N5C)N(C)C (stereo partly drawn) | > 100 | 35 | > 100 | 68.2 | > 100 | 42.5 | > 100 | 73 | 74.7 | – | – | – | – | –
NCCCn1c2c(c3cc4c(cc3c1=O)OCO4)C(=O)c1ccccc1-2 | 0.208 | – | – | > 100 | 5.75 | – | > 100 | 5.5 | – | – | 0.0575 | 1.98 | 10.5 | 2.06
O=C(c1cc2c(C(F)(F)F)onc2c2ccccc12)C(F)(F)F | 12.8 | > 75.1 | 17.4 | > 61.7 | 42.2 | – | 46.7 | 17 | > 100 | – | – | – | – | –
CC(=O)O[C@H]1CCC2[C@@H]3CCC4Nc5c(cnn5-c5ccccc5)C[C@]4(C)C3CC[C@@]21C (stereo partly drawn) | 46.2 | – | 24.6 | 34.9 | 50.3 | 35.1 | 42.4 | 22.6 | – | – | – | – | – | –
CCC(O)(c1ccc(OC)cc1)C(c1ccc(OCc2ccccc2)cc1)c1ccc(OCc2ccccc2)cc1 (stereo not drawn) | > 100 | > 100 | > 100 | > 100 | > 100 | > 100 | > 100 | > 100 | > 100 | – | – | – | – | –
O=C(COc1ccc(Cl)cc1)N1N=C(c2ccc([N+](=O)[O-])o2)CC1(O)c1ccccc1 (stereo not drawn) | 18.3 | 25.1 | – | 16.3 | 20.6 | 23.4 | 47.3 | 19.7 | 23.8 | – | – | – | – | –
COc1cc2ccc(/C(C)=N/OC(C)=O)cc2cc1OC | > 100 | > 100 | > 100 | > 100 | > 100 | > 100 | > 100 | > 100 | – | – | – | – | – | –
NC1=NC(c2ccccc2)CC(c2cc(Cl)cc(Br)c2O)=N1 (stereo not drawn) | 33.6 | 28.9 | 17 | 27 | 37.3 | 15.9 | 42.7 | 24.6 | > 100 | – | – | – | – | –
CC(=O)NNC(=S)/N=C/c1c(O)cc(C)oc1=O | – | > 100 | – | > 100 | > 100 | – | > 100 | – | – | > 100 | – | – | – | –
C/C(=N\NS(=O)(=O)c1ccc(C)cc1)c1c(O)cc(C)oc1=O | – | > 100 | – | > 100 | > 100 | > 100 | > 100 | > 100 | > 100 | – | – | – | – | –
Cc1[nH]c2ccccc2c1C1CC(=O)NC1=O (stereo not drawn) | > 100 | > 100 | > 100 | – | > 100 | > 100 | > 100 | > 100 | – | – | – | – | – | –
CC(Oc1ccc(OCC2CCCCC2)cc1)C(=O)O (stereo not drawn) | – | > 100 | – | > 100 | > 100 | > 100 | > 100 | > 100 | – | – | – | – | – | –
CCN(CC)CCOC(=O)/C(=C/c1ccc(OC)cc1)c1cc(OC)c(OC)c(OC)c1 | 52.5 | > 100 | 5 | 18 | > 100 | 34.1 | – | 24.1 | – | – | – | – | – | –
CC(C)c1cccc(C(C)C)c1N=C(N)C#N | > 87.3 | > 100 | > 100 | > 100 | > 100 | > 100 | > 100 | 99.1 | > 90 | – | – | – | – | –
CCN(CC)C(=O)CNC(=O)OC(C)(C)C | > 100 | > 100 | > 100 | > 100 | > 100 | > 100 | > 100 | > 100 | – | – | – | – | – | –
